Molecules are shown by their SMILES.

From patent publication US8119681B2, “2-[1-phenyl-5-hydroxy or methoxy-4alpha-methyl-hexahydrocyclopenta [ƒ]indazole-5-YL]ethyl phenyl derivatives as glucocorticoid receptor ligands” (Merck Sharp & Dohme Corp., priority 2006, dated 2012) come the findings set out here.

Assay [1] deals with T1, human GR (Homo sapiens, UniProt P04150).
T1 sequence (P04150 1-777): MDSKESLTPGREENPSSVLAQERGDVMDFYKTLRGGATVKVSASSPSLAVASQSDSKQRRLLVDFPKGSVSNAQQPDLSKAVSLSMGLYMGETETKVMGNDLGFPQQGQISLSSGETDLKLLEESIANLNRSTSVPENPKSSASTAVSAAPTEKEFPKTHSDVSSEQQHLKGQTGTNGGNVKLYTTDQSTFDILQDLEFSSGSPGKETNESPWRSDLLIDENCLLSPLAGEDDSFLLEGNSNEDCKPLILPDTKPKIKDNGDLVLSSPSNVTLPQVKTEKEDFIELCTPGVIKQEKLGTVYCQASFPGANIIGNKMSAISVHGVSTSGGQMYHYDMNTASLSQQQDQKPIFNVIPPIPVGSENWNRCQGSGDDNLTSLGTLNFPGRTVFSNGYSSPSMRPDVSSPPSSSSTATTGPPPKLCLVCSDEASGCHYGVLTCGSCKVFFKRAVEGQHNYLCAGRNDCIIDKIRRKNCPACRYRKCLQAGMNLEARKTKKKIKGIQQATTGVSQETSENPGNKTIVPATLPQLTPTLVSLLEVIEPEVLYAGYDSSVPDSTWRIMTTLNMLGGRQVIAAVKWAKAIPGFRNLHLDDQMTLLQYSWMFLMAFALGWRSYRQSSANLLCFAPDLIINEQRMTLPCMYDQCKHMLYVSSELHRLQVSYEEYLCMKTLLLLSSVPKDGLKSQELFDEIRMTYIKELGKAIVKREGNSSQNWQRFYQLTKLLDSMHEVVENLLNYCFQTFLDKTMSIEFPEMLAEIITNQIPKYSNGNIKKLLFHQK
Briefly: Trans-Activation Modulation of Glucocorticoid Receptor (GRAMMER), MMTV-LUC reporter gene. It is filed as cell-based. The arrangement: endogenous in cells. The note with it: for Emax: A549; for EC50: A549 cells, IP = inflection point. On the technique in general: A reporter such as luciferase makes a cellular process visible.

Assay [2] concerns the target T1, human GR. Kind of assay: Transrepression Assay (GITAR), TNFα-β-lactamase reporter gene in U937 cells. As to conditions: for EC50: IP = inflection point; for GITAR > GRAMM % SEP: separation of GITAR Emax over GRAMMER Emax; for Emax: U-937. It is filed as cell-based. The arrangement: U937 cells contain an endogenous glucocorticoid receptor (GR); endogenous in cells; host or cells: U937 cells stably transfected with the TNF-α promoter/β-lactamase reporter only. In outline: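 Reporter readout used CCF2-AM loading for 70–90 min at room temperature after overnight (~18 h, 37 °C) PMA (5 ng/ml final) and LPS (100 ng/ml final) stimulation of compound-treated (30–45 min) TNFα-β-lactamase U937 cells expressing native GR. Activity was normalised to 100 nM dexamethasone repression.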

Where [3] appears, read: read-out: Transactivation A549 Cells GRAMMER Emax (%).
Where [4] appears, read: Table 1, read-out: Transactivation A549 Cells GRAMMER IP.
Where [5] appears, read: Table 1, U937 cells, read-out: Transrepression U937 Cells GITAR IP.
Where [6] appears, read: 100 nM dexamethasone = 100% activity, read-out: maximal activity in the transrepression assay.
[7] abbreviates: Table 1, U937 cells, activity repressed by 100 nM dexamethasone = 100%, read-out: Transrepression U937 Cells GITAR Emax (%).
[8] abbreviates: read-out: Transactiviation A549 Cells GRAMMER Emax (%).
[9] abbreviates: Table 2, read-out: Transactiviation A549 Cells GRAMMER IP.
[10] abbreviates: Table 2, U937 cells, read-out: Transactiviation U937 Cells GITAR IP.
The mark [11] stands for this setting: Table 2, U937 cells, activity repressed by 100 nM dexamethasone = 100%, read-out: Transactiviation U937 Cells GITAR Emax (%).

In the case of `CC(C)[C@@H](C)NC(=O)c1c(F)cccc1CC[C@]1(O)CCC2=Cc3c(cnn3-c3ccc(F)cc3)C[C@@]21C` [Example 48, N-[(1R)-1,2-dimethylpropyl]-2-fluoro-6-{2-[(4αS,5R)-1-(4-fluorophenyl)-5-hydroxy-4α-methyl-1,4,4α,5,6,7-hexahydrocyclopenta[f]indazol-5-yl]ethyl}benzamide], the Emax was 13% at human GR [1] (setting [3]), 5 to 100% on human GR [2] (setting [6]) and 72% at human GR [2] (setting [7]). Also, the EC50 on human GR [1] (setting [4]) worked out at 94 nM; on human GR [2] (setting [5]), 198 nM. Moreover, at human GR [2] (Table 1), the “GITAR > GRAMM % SEP” value is given as 59%.
As for `CCCNC(=O)c1c(F)cccc1CC[C@]1(O)CCC2=Cc3c(cnn3-c3ccc(F)cc3)C[C@@]21C` [Example 49, 2-fluoro-6-{2-[(4αS,5R)-1-(4-fluorophenyl)-5-hydroxy-4α-methyl-1,4,4α,5,6,7-hexahydrocyclopenta[f]indazol-5-yl]ethyl}-N-propylbenzamide], the figures for the Emax on human GR [1] (setting [3]), on human GR [2] (setting [6]) and at human GR [2] (setting [7]) were 25%, 5 to 100% and 72%, respectively. Besides, the EC50 at human GR [1] (setting [4]) was 26 nM; on human GR [2] (setting [5]), 30 nM. Moreover, at human GR [2] (Table 1), the “GITAR > GRAMM % SEP” value came to 47%.
Take `CCNC(=O)c1ccccc1CC[C@]1(O)CCC2=Cc3c(cnn3-c3ccc(F)c(F)c3)C[C@@]21C` [Example 51, 2-{2-[(4αS,5R)-1-(3,4-difluorophenyl)-5-hydroxy-4α-methyl-1,4,4α,5,6,7-hexahydrocyclopenta[f]indazol-5-yl]ethyl}-N-ethylbenzamide]: the results for the Emax on human GR [1] (setting [3]), on human GR [2] (setting [6]) and on human GR [2] (setting [7]) were 30%, 5 to 100% and 73%, respectively. In addition, the EC50 at human GR [1] (setting [4]) worked out at 164 nM; on human GR [2] (setting [5]) it was 193 nM. Also, on human GR [2] (Table 1), the “GITAR > GRAMM % SEP” value worked out at 42%.
As for `COC(=O)C(C)(C)NC(=O)c1ccccc1CC[C@]1(O)CCC2=Cc3c(cnn3-c3ccc(F)cc3)C[C@@]21C` [Example 52, methyl N-(2-{2-[(4αS,5R)-1-(4-fluorophenyl)-5-hydroxy-4α-methyl-1,4,4α,5,6,7-hexahydrocyclopenta[f]indazol-5-yl]ethyl}benzoyl)-2-methylalaninate], the Emax on human GR [1] (setting [3]) is 45%; at human GR [2] (setting [6]), 5 to 100%; on human GR [2] (setting [7]), 74%. Moreover, the EC50 on human GR [1] (setting [4]) worked out at 21 nM; at human GR [2] (setting [5]), 154 nM. Further, the “GITAR > GRAMM % SEP” value at human GR [2] (Table 1) is 29%.
Regarding `CC(C)(C)CNC(=O)c1c(F)cccc1CC[C@]1(O)CCC2=Cc3c(cnn3-c3ccc(F)cc3)C[C@@]21C` [Example 55, N-(2,2-dimethylpropyl)-2-fluoro-6-{2-[(4αS,5R)-1-(4-fluorophenyl)-5-hydroxy-4α-methyl-1,4,4α,5,6,7-hexahydrocyclopenta[f]indazol-5-yl]ethyl}benzamide], the Emax at human GR [1] (setting [3]) is 23%; at human GR [2] (setting [6]), 5 to 100%; on human GR [2] (setting [7]), 76%. Besides, the values for the EC50 on human GR [1] (setting [4]) and on human GR [2] (setting [5]) were 173 nM and 187 nM, respectively. Also, the “GITAR > GRAMM % SEP” value at human GR [2] (Table 1) is 53%.
`C=CCNC(=O)c1c(F)cccc1CC[C@]1(O)CCC2=Cc3c(cnn3-c3ccc(F)cc3)C[C@@]21C` [Example 57, N-allyl-2-fluoro-6-{2-[(4αS,5R)-1-(4-fluorophenyl)-5-hydroxy-4α-methyl-1,4,4α,5,6,7-hexahydrocyclopenta[f]indazol-5-yl]ethyl}benzamide]: the figures for the Emax on human GR [1] (setting [3]), on human GR [2] (setting [6]) and on human GR [2] (setting [7]) were 37%, 5 to 100% and 77%, respectively. In addition, the EC50 on human GR [1] (setting [4]) was 24 nM; at human GR [2] (setting [5]) it was 30 nM. In addition, the “GITAR > GRAMM % SEP” value at human GR [2] (Table 1) is given as 40%.
For `COc1ccccc1CC[C@]1(O)CCC2=Cc3c(cnn3-c3ccc(F)cc3)C[C@@]21C` [Example 58 WO 2004/075840 A2, reference compound], the results for the Emax on human GR [1] (setting [8]) and at human GR [2] (setting [11]) were 28% and 42%, respectively. The EC50 at human GR [1] (setting [9]) came to 397 nM; at human GR [2] (setting [10]) it was 642 nM. In addition, the “GITAR > GRAMM % SEP” value on human GR [2] (Table 2) was 14%.
As for `CC(C)(C)NC(=O)c1c(F)cccc1CC[C@]1(O)CCC2=Cc3c(cnn3-c3ccc(F)cc3)C[C@@]21C` [Example 59, N-(tert-butyl)-2-fluoro-6-{2-[(4αS,5R)-1-(4-fluorophenyl)-5-hydroxy-4α-methyl-1,4,4α,5,6,7-hexahydrocyclopenta[f]indazol-5-yl]ethyl}benzamide], the Emax was 40% on human GR [1] (setting [3]), 5 to 100% on human GR [2] (setting [6]) and 77% on human GR [2] (setting [7]). Further, the EC50 at human GR [1] (setting [4]) was 108 nM; on human GR [2] (setting [5]), 95 nM. On human GR [2] (Table 1), the “GITAR > GRAMM % SEP” value was found to be 37%.
As to `CC(C)CNC(=O)c1c(F)cccc1CC[C@]1(O)CCC2=Cc3c(cnn3-c3ccc(F)cc3)C[C@@]21C` [Example 61, 2-fluoro-6-{2-[(4αS,5R)-1-(4-fluorophenyl)-5-hydroxy-4α-methyl-1,4,4α,5,6,7-hexahydrocyclopenta[f]indazol-5-yl]ethyl}-N-isobutylbenzamide], the results for the Emax at human GR [1] (setting [3]), on human GR [2] (setting [6]) and at human GR [2] (setting [7]) were 35%, 5 to 100% and 79%, respectively. In addition, the results for the EC50 on human GR [1] (setting [4]) and at human GR [2] (setting [5]) were 86 nM and 83 nM, respectively. Further, the “GITAR > GRAMM % SEP” value on human GR [2] (Table 1) is reported as 44%.
Turning to `CC(C)(C)NC(=O)c1ccccc1CC[C@]1(O)CCC2=Cc3c(cnn3-c3ccc(F)cc3)C[C@@]21C` [Example 62, N-(tert-butyl)-2-{2-[(4αS,5R)-1-(4-fluorophenyl)-5-hydroxy-4α-methyl-1,4,4α,5,6,7-hexahydrocyclopenta[f]indazol-5-yl]ethyl}benzamide], the figures for the Emax at human GR [1] (setting [3]), at human GR [2] (setting [6]) and on human GR [2] (setting [7]) were 23%, 5 to 100% and 79%, respectively. Also, the EC50 came out at 212 nM at human GR [1] (setting [4]) and 246 nM on human GR [2] (setting [5]). Further, the “GITAR > GRAMM % SEP” value on human GR [2] (Table 1) is listed as 56%.
On to `C[C@]12Cc3cnn(-c4ccc(F)cc4)c3C=C1CC[C@@]2(O)CCc1ccccc1F` [Example 70 WO 2004/075840 A2, reference compound], for which the figures for the Emax on human GR [1] (setting [8]) and on human GR [2] (setting [11]) were 144% and 83%, respectively. For the same molecule, the EC50 at human GR [1] (setting [9]) is 215 nM; at human GR [2] (setting [10]), 175 nM. The “GITAR > GRAMM % SEP” value at human GR [2] (Table 2) was −62%.
On to `CC(C)S(=O)(=O)NCc1c(F)cccc1CC[C@]1(O)CCC2=Cc3c(cnn3-c3ccc(F)cc3)C[C@@]21C` [Example 83, N-(2-fluoro-6-{2-[(4αS,5R)-1-(4-fluorophenyl)-5-hydroxy-4α-methyl-1,4,4α,5,6,7-hexahydrocyclopenta[f]indazol-5-yl]ethyl}benzyl)propane-2-sulfonamide], for which the Emax at human GR [1] (setting [3]) is 21%; on human GR [2] (setting [6]) it was 5 to 100%; at human GR [2] (setting [7]) it was 54%. Moreover, the EC50 was found to be 70 nM at human GR [1] (setting [4]) and 94 nM on human GR [2] (setting [5]). Moreover, on human GR [2] (Table 1), the “GITAR > GRAMM % SEP” value was determined as 33%.
As to `CCS(=O)(=O)NCc1c(F)cccc1CC[C@]1(O)CCC2=Cc3c(cnn3-c3ccc(F)cc3)C[C@@]21C` [Example 84, N-(2-fluoro-6-{2-[(4αS,5R)-1-(4-fluorophenyl)-5-hydroxy-4α-methyl-1,4,4α,5,6,7-hexahydrocyclopenta[f]indazol-5-yl]ethyl}benzyl)ethanesulfonamide], the values for the Emax at human GR [1] (setting [3]), at human GR [2] (setting [6]) and on human GR [2] (setting [7]) were 23%, 5 to 100% and 60%, respectively. Moreover, the EC50 on human GR [1] (setting [4]) was determined as 50 nM; on human GR [2] (setting [5]), 96 nM. Besides, the “GITAR > GRAMM % SEP” value on human GR [2] (Table 1) was found to be 37%.
